From patent US10897891B2, “Compositions and methods for prolonged cell storage” (Board of Regents, The University of Texas System, priority 2015, dated 2021)
Entries after “also recorded” stand apart in the source; their conditions may differ.

What was measured:
[1] = test system: platelets; experiment: Platelet aggregation and shape after cold storage (microscopy, Experiment A); assay type: cell-based, human; details: 2% final PEG-400, 5° C., 26 days, rotation 70 cycles per minute
Protocol: Photomicrographs were taken with a Nikon E400 microscope with an Insight 18.2 Color Camera and Spot 5.1 image capture software. No image adjustments were performed. Fluorescent microscopy was performed using a Leica DMIL photomicroscope and Leica LAS V3.8 image acquisition software. No post photographic image adjustments were made.
Platelets are known to change shape and show partial aggregation when chilled. The goal of the initial experiments was to see if this behavior changed when platelets were incubated in the presence of PEG-400. Two standard random donor platelet concentrates, type O, were mixed by connecting the bags, followed by gravity mixing 8 times. This mixture was equally divided by weight into the two original platelet bags and either 10 ml of PBS or 10 ml of PEG-400 in PBS was added to the control and test unit respectively. The final concentration of PEG-400 in the unit was 2%. These units were then gently rotated at 70 cycles per minute, with a 1 inch stroke length, at 5° C., over 26 days. At the end of this time aliquots were examined and photographed. • PBS Control 2% PEG-400 in PBS

[2] = test system: platelets; experiment: Platelet degranulation by anti-von Willebrand factor immunofluorescent staining (Experiment D); assay type: cell-based, human; details: 1.5% PEG-400, 5° C., 8 days, rotation
Protocol: Functional, non-degranulated, platelets should retain vWF at high concentrations in their alpha granules. To study the effect of PEG on gradual loss or preservation a direct fluorescent antibody immunoflorescent staining protocol was developed. Slides were air dried for 5 min and immersed in 0.5% fresh paraformaldehyde in 10% PBS pH 7.3 for 10 min. Slides were soaked for 2 min in PBS with 5 changes. Subsequently excess PBS was drained and slides immersed for 2 min in ice cold dry acetone. Again, slides were drained and excess acetone was removed with 5 PBS washings of 2 min each. Slides were then immersed in 0.5% filter sterilized BSA in PBS and allowed to block overnight at 4° C. After draining excess block solution, 50 ul of primary antibody (Polyclonal rabbit anti-vWF-PB9062, Boster Biological Technology, Pleasanton, Calif.) at 5 ng/ml was applied immediately over the platelet spot and incubated in a humidity chamber for 4 hr at 4° C. Slides were washed with 5 changes of 0.5% BSA/PBS for 5 min each. Excess fluid was again removed and FITC labeled goatd anti-rabbit, Sigma F0382, was added 50 ug/ml in 0.5% BSA/PBS for 3 hr. […]
von Willebrand Factor (vWF) is a major component of platelet alpha granules. […] No post photographic image adjustments were made to images analyzed.

[3] = test system: platelets; experiment: Epinephrine induced platelet aggregation following cold storage (OD 690 nm, Experiment C); assay type: cell-based, human; details: 2% PEG-400, 5° C. for 7 days
Protocol: (§1) Platelet aggregation using epinephrine. Ten ml of 24 hr old platelet residual was derived from one platelet unit and split into two 5 ml aliquots in 50 ml tubes. One sample received 10% phosphate buffered saline (PBS) and one 10% PBS containing PEG400 such that the final PEG concentration was 2%. These samples were placed on a flat-bed rotator with a 1 inch stroke, at 70 cycles per min, at 5° C. for 7 days. 100 ul of these platelet suspensions were added to wells of a 96 well U bottom plate. Epinephrine 0.1 mg/ml (Pharmaceutical NDC 0409-4921-34-44-048-DK) was diluted with PBS and 100 ul was added to test wells to give a finial concentration of 10 mcg/ml. The plate was rotated overnight to allow aggregation. The extent of aggregation was read using an ELISA plate reader (Molecular Devises, Vmax) at 690 nm wavelength. Platelets, with and without PEG, were also aggregated by the addition of 10% H2O2. […] Table 3 presents additional cryoprotective agents scored for the effect on microscopic degranulation (20× high contrast lighting as above).
Fresh donor platelets were supplemented with PBS or PBS 2% PEG-400 as described in the methods, and incubated at 5° C. for 7 days. These control and test samples were then loaded side by side on a 96 well plate (ensuring that test and control reading would be made simultaneously). […]

[4] = test system: platelets; experiment: Hydrogen peroxide induced platelet aggregation (platelet 'aging', Experiment B); assay type: cell-based, human; details: 2% PEG-400 in PBS, 1 hr room temperature
Protocol: as §1, with “H2O2. Hydrogen peroxide is not an agonist for the platelet receptor; however exposure to hydrogen peroxide mimics the platelet storage lesion though membrane ageing. In this study, the inventors tested 2 day old residual platelets form one donor unit by splitting the material in to a 24 well cluster plate.” for “H2O2.”, “above). […]” for “above).”

[5] = dogs; cited from earlier work

Polyethylene glycol [PEG-400]
platelet aggregation and rod shapes vs PBS control [1]: control was observed to be more aggregated and to have more rod shapes than the PEG test platelets | vWF degranulation at 5° C. [2]: sufficient to prevent vWG degranulation; also recorded: prevented vWG degranulation | initial aggregation in the stored state (baseline OD 690 nm, no epinephrine) [3]: less initial aggregation in the stored state | aggregation response to epinephrine challenge (OD 690 nm) ([3]; 0 vs 10 μg epinephrine): significant aggregation response to epinephrine | platelet aggregation after 10% hydrogen peroxide vs PBS control [4]: less aggregation of the platelets | toxic endpoint [5]: ~8 g/kg | toxic endpoint for the whole animal [5]: 0.8%
